Results published in the METLIN SMRT retention time set (Domingo-Almenara et al. 2019).

Experiment: gradient 5% acetonitrile 3 min, to 50% in 2 min, to 85% in 15 min, held 3 min, 100 µL/min
Conditions: column: Zorbax Extend-C18 2.1 x 50 mm; eluents: water / acetonitrile, 0.1% formic acid
Summary of the method: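 Retention times come from adduct peaks that were picked computationally and then checked by hand. The standards, pure and pooled in mixtures of ~100 molecules, were run on a Zorbax Extend-C18 column (2.1 × 50 mm, 1.8 μm) at 100 μL/min with water and acetonitrile, each with 0.1% formic acid. Detection was by quadrupole time-of-flight mass spectrometry in positive and negative ionization mode, with a dead volume of 40 μL and a dwell volume of 900 μL.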

Point of comparison: `CCN1CCn2cc(C(=O)N3CCN(c4ccccc4Cl)CC3)nc2C1`, RP-LC retention time 622 s. Against it:
- O=C(CSc1nc2ncccc2[nH]1)Nc1ccc(Br)cc1F — higher, 720 s
- CCc1cccc(N2C=NS(=O)(=O)c3cccnc32)c1 — higher, 836 s
- Cc1cc(N2CCN(C)CC2)nc2ccc(NC(=O)Nc3ccc(Br)cc3)cc12 — lower, 609 s
- O=S(=O)(Cc1ccc(Cl)cc1)N1CCc2nc(-c3ccc(Cl)cc3)ncc2C1 — higher, 1210 s
- CCOc1ccc(NS(=O)(=O)c2cc(C(=O)N3CCN(c4cccc(C)c4)C(C)C3)n[nH]2)cc1 (stereo not given) — higher, 899 s
- COc1cc(Cl)ccc1C(=O)N1CCCN(C2CCN(CC3CC3)C2=O)CC1 (stereo not given) — lower, 574 s
- COc1ccc(N2C(=O)CC(N3CCC(C)CC3)C2=O)cc1 (stereo not given) — lower, 579 s
- O=C(Cc1ccsc1)Nc1cnc(N2CCOCC2)nc1 — higher, 686 s
- Cc1cccc(CN2CCCN(CC(=O)NC(C)CCc3ccccc3)S2(=O)=O)c1 (stereo not given) — higher, 1080 s
- Cc1ccc(S(=O)(=O)N(C)C)cc1-c1nnc(-c2ccccc2Cl)o1 — higher, 1010 s
- O=C(NCCOc1ccc(-c2ccccc2)nn1)c1ccc(=O)[nH]n1 — lower, 600 s
- CC(O)(CCc1ccccc1)CNC(=O)c1ccc(F)cc1 (stereo not given) — higher, 758 s
- O=C(COc1ccc(Cl)cc1Cl)NCC1CCN(C(=O)c2ccccc2F)CC1 — higher, 858 s
- CCN1CCCC(C(=O)NCc2cccs2)(c2ccccc2)CC1 (stereo not given) — higher, 643 s
- COc1ccc(OC)c(N2CC(c3nc(-c4ccc5c(c4)OCO5)no3)CC2=O)c1 (stereo not given) — higher, 886 s
- Cn1c(C2CCN(C(=O)Cc3ccc(Cl)cc3)C2)nc2ccncc21 (stereo not given) — lower, 551 s
- COCCNC(=O)C1CCCN(c2cnc3nccnc3c2)C1 (stereo not given) — lower, 588 s
- CCc1nc2c(c(=O)n1CC(=O)Nc1c(C)cccc1C)CN(Cc1ccccc1)CC2 — higher, 645 s
- Oc1c(C(Nc2cccc(Cl)c2)c2cccnc2)ccc2cccnc12 (stereo not given) — higher, 692 s
- O=C(Nc1ccc2c(c1)OCCO2)C1CC(=O)N(CCc2c[nH]c3ccc(F)cc23)C1 (stereo not given) — higher, 764 s
- COc1ccc(OC)c(NC(=O)Cn2cccc2-c2nnc(C3CC3)o2)c1 — higher, 704 s
- CNC(=O)C1CCCN(c2nc3ncn(CC(=O)NCc4ccccc4)c(=O)c3s2)C1 (stereo not given) — lower, 620 s
- O=C(CCn1nnc2cc(-c3noc(Cc4ccccc4Br)n3)ccc21)N1CCOCC1 — higher, 860 s
- CCN1CCN(C(=O)C2CCN(c3nc4ccc(-c5ccsc5)nc4s3)CC2)CC1 — higher, 666 s
- COc1cc(C(=O)N2CCN(c3cc(N(C)C)nc(C)n3)CC2)cc(OC)c1OC — lower, 599 s
- COCCN(Cc1ccc(F)cc1)Cc1cc(=O)c2cc(Cl)ccc2[nH]1 — higher, 880 s
- O=C(Nc1ccccc1NC(=O)c1ccccc1C(F)(F)F)c1ccsc1 — higher, 830 s
- O=C(c1ccncc1)N1CCc2cc(-c3csc(C4CC4)n3)ccc21 — higher, 848 s
- Cn1cc2c(N3CCCC3)nc(C(=O)NCc3ccccc3C(F)(F)F)nc2n1 — higher, 646 s
- CCCNC(=O)C1CCN(c2nc3ccc(-c4cccnc4)nc3s2)CC1 — lower, 604 s
- CC(C)CCNC(=O)N1CCN(Cc2nc3cc(C(=O)N(C)C)ccc3o2)CC1 — lower, 614 s
- CCC(=O)Nc1ccc2c(c1)N(C(=O)c1ccco1)CCC2 — higher, 725 s
- COc1ccc(-c2nc(CNC(=O)C3CCOC3)no2)cc1 (stereo not given) — higher, 677 s
- CCOc1ccc2ncc(S(=O)(=O)c3ccc(Cl)cc3)c(N3CCN(C)CC3)c2c1 — higher, 680 s
- Cc1ccc(-n2c(N3CCCC(C(=O)NC(C)c4ccc(F)cc4)C3)nc3ccsc3c2=O)cc1 (stereo not given) — higher, 959 s
- Fc1ccc(CN2CCCCC2c2nc(-c3cnccn3)no2)c(F)c1 (stereo not given) — higher, 738 s
- O=C1NCCCn2cc(S(=O)(=O)Nc3ccc(Oc4ccccc4)cc3)cc21 — higher, 768 s
- CCN1C=C(C(=O)OCc2ccccc2C)C(C)=NS1(=O)=O — higher, 1030 s
- CCC(C(=O)Nc1ccc(OC)c(OC)c1)n1cnc2nc3c(cc2c1=O)CCCC3 (stereo not given) — higher, 720 s
- Nc1ccc(C(=O)c2cccs2)cn1 — higher, 634 s
- CC(=O)c1cccc(S(=O)(=O)Nc2ccc(CC(=O)N(C)C)cc2)c1 — higher, 651 s
- COC(=O)c1ccccc1NC(=O)N1CCOc2ccc(C)cc21 — higher, 1140 s
- CCOC(=O)CNC(=O)Cn1cnc2c(oc3ccccc32)c1=O — higher, 624 s
- COc1ccc(-c2nc(Cc3noc(-c4ccccc4F)n3)c(C)o2)cc1 — higher, 1080 s
- Cc1[nH]c(C)c(S(=O)(=O)N2CCC(C(=O)N3CCC(C)CC3)CC2)c1C(=O)N1CCCCC1 — higher, 760 s
- CCOC(=O)c1c(C)oc2ncnc(Nc3cc(Cl)ccc3OC)c12 — higher, 1360 s
- CCn1ccc(C(=O)N2[C@H]3CC[C@@H]2c2cnc(C)nc2C3)n1 — lower, 610 s
- Clc1ccc(-c2nnc(Cc3nc(-c4cccs4)no3)o2)cc1 — higher, 1000 s
- Cc1ccc(NCCN(C)C)c2c(=O)c3cc(O)ccc3sc12 — higher, 736 s
- Cc1nc(-c2ccncc2)nc2c1CCC(=O)N2Cc1ccco1 — higher, 666 s
- CCn1ccc2ccc(CCC(=O)N3CCN(c4ccccc4)CC3)cc21 — higher, 1030 s
- CCOc1cc(-c2ccc(F)cc2)nc2ccc(NC(=O)C3CCC3)cc12 — higher, 774 s
- CCOC(=O)c1nnn(C(CC)C(=O)Nc2ccc(OC)cc2)c1C(=O)OCC (stereo not given) — higher, 814 s
- O=C(CCc1c(-c2ccc(Cl)cc2)nc2ccccn12)Nc1ccc(F)cc1 — higher, 748 s
- Cc1occc1C(=O)N[C@@H]1CN(c2ncccn2)C[C@H]1CO — lower, 597 s
- O=C(Cc1ccc(F)cc1)N1CCc2cc(-c3ccno3)ccc21 — higher, 940 s
- CCOc1cc(=O)n2c(c1C(=O)Nc1ccc(C(=O)OC)cc1)CCCC2 — higher, 707 s
- O=C(CCC1CCCC1)Nc1nc(-c2ccc3ccccc3c2)cs1 — higher, 1340 s
- O=C(OCc1ccncc1)c1cn(-c2ccc(F)cc2)c(=O)c2ccccc12 — higher, 703 s
- Cc1nn(-c2ccccc2)c(C)c1CCc1nn2c(-c3cccc(F)c3)nnc2s1 — higher, 934 s
- O=C(COc1ccc(Cl)cc1)Nc1ccc2c(c1)N(C(=O)c1ccco1)CCC2 — higher, 948 s
- CCCNC(=O)c1nc(Nc2ccc(F)cc2)c2ccccc2n1 — higher, 746 s
- COCCNC(=O)C1CCCN(c2nccc(C)n2)C1 (stereo not given) — lower, 584 s
- COc1ccc(S(=O)(=O)N2CCCC(C(=O)N3CCCC3)C2)cc1C (stereo not given) — higher, 806 s
- Fc1ccc(-c2nc(-c3cn(-c4ccccc4)nn3)no2)cc1 — lower, 607 s
- COc1cccc(NC(=O)Cn2nc3cc(C)nc(Nc4ccc(F)c(C)c4)n3c2=O)c1 — higher, 1040 s
- O=C(Cn1nc2n(c1=O)CCCCC2)Nc1ccc(C(F)(F)F)cc1 — higher, 764 s
- COc1ccc(NC(=O)N2CCCC2c2nc(-c3cccc(C)c3)no2)cc1 (stereo not given) — higher, 827 s
- CCOC(=O)c1sc2ccccc2c1S(=O)(=O)N1CCN(c2ccccn2)CC1 — higher, 794 s
- CCCN(CCC)C(=O)Cn1c(C2CCCN2C(=O)CC)nc2ccccc21 (stereo not given) — higher, 660 s
- Cc1ccc(S(=O)(=O)c2cnc(N3CCN(c4ccccc4Cl)CC3)nc2N)cc1C — higher, 1280 s
- CCn1cnnc1C1CCCN(C(=O)CCc2c[nH]c3ccccc23)C1 (stereo not given) — lower, 612 s
- COc1ccc(Cn2nc3ccc(S(=O)(=O)N4CCCCCC4)cn3c2=O)cc1 — higher, 935 s
- Cc1nc(NC(=O)CN(C)c2nc3c(C)ccc(C)c3s2)sc1C(=O)N(C)C — higher, 803 s
- CCCC(=O)N1CCc2c([nH]c3ccccc23)C1c1ccc(F)cc1 (stereo not given) — higher, 698 s
- COc1ccc2c(c1)CC(C(=O)NCc1ccc(OC)cc1OC)CO2 (stereo not given) — higher, 894 s
- COc1ccccc1N1CCN(CC2CN3C(=O)N(C)c4ccccc4C3=N2)CC1 (stereo not given) — higher, 662 s
- COc1ccc(Cl)cc1NC(=O)Cn1nc2cc(-c3ccccc3)nc(C)n2c1=O — higher, 974 s
- N#Cc1ccsc1NC(=O)c1cccc(Cl)c1 — higher, 861 s
- Cc1ccc(C)c2c(=O)c3c([nH]c12)CCN(CC(=O)Nc1ccc(F)cc1F)C3 — higher, 648 s
- CCOC(=O)c1cn[nH]c1S(=O)(=O)N1CCC(C(N)=O)CC1 — lower, 585 s
- COc1cc(Cl)c(NC(=O)C(=O)c2ccc[nH]2)c(OC)c1 — higher, 969 s
- COc1ccc(CCn2c(-c3cccs3)nc3c(c(=O)c4ccccc4n3C)c2=O)cc1 — higher, 880 s
- O=C(Nc1ccccc1C(F)(F)F)N1CCCC1c1nc(-c2ccc(F)cc2F)no1 (stereo not given) — higher, 1030 s
- CCC(C)NC(=O)CCn1c(=O)c2ccccc2n2c(=O)n(Cc3ccccc3)nc12 (stereo not given) — higher, 856 s
- Cc1ccc(NC(=O)Cn2cccc2-c2nnc(C3CC3)o2)c(Cl)c1 — higher, 930 s
- O=C(C1CCN(S(=O)(=O)c2cc(-c3noc(C4CCC4)n3)cs2)CC1)N1CCOCC1 — higher, 863 s
- CCN1CCN(C(=O)C2CCN(S(=O)(=O)c3cc(C(=O)N4CCCC4)n(C)c3)CC2)CC1 — lower, 567 s
- COc1ccc(N2CCN(c3ncc(S(=O)(=O)c4ccc(C(C)C)cc4)c(N)n3)CC2)cc1 — higher, 1070 s
